The text below walks through data of ChEMBL document CHEMBL5608206, “Exploring monocyclic core: Discovery of pyrrol-2-one derivatives as a new series of potent MCHR1 antagonists with in vivo efficacy” (Eur J Med Chem, 2024).

Series [1] is described as follows: in vitro. The following applies: rat, liver microsomes. For orientation: Liver microsomes are vesicles of endoplasmic reticulum, rich in cytochrome P450 enzymes.
Series [2] can be described thus: in vitro. The following applies: human, liver microsomes.
The nature of series [3]: in vitro. The note with it: mouse, liver microsomes.

Take `COc1cc(N2CC=C(Oc3ccc(C4CC4)cc3)C2=O)ccc1OCCO`: the share remaining at 10 min, 3 µM was 71% in “in vitro [1]”, 87% in “in vitro [2]” and 74% in “in vitro [3]”. In addition, in the series “physchem”, the logP worked out at 3.3.

What is called fraction remaining is what is left of the initial amount, in per cent. Low readings indicate a greater loss, high ones greater stability. The term logP denotes a log measure of how a compound divides between an organic and an aqueous phase.
